Reference: patent US20210046106A1, “METHODS OF TREATING CANCER WITH ANDROGEN DEPRIVATION THERAPY IN COMBINATION WITH AN INHIBITOR OF THE SP1 TRANSCRIPTION FACTOR” (The Board of Trustees of the Leland Stanford Junior …, priority 2019, published 2021)
Several values for one entry are separate records, joined by “and”; a condition that tells them apart may be missing. Equal values may be shown once. Entries after “also recorded” stand apart in the source; their conditions may differ.

Assay: Phase 1 trial of sodium selenite with palliative radiation therapy: adverse events / toxicity
Source text: Patients: This study was approved by the Food and Drug Administration (IND 122151), the Stanford University Internal Review Board, and the Scientific Review Committee for the Stanford Cancer Institute. […] The study was initially open only to prostate cancer patients, but then expanded to include a variety of tumor types. […] Before study entry, patients had to meet a number of eligibility criteria. Inclusion criteria included a) histologically-confirmed solid tumor malignancy with confirmation of metastasis, multiple myeloma, or plasmacytoma, b) need for palliative radiation therapy, c) for prostate cancer patients, PSA at least 2 ng/mL, except for patients who had recently started androgen deprivation therapy with PSA less than 2 ng/mL, d) […], e) life expectancy greater than 3 months, f) Eastern Cooperative Oncology Group (ECOG) performance status of zero or one or Karnofsky performance status 80%, and g) QT interval corrected using Fridericia's method (QTcF) <460 msec.
Patients were treated in groups of three with each receiving the same dose. […] Dose escalation was to proceed as follows: a) if none of the three patients experienced a dose limiting toxicity (DLT), dose escalation to the next dose level would occur, b) if one of three patients treated at that dose level experienced a DLT, that dose level would be expanded to six subjects; if no additional patient in that cohort experienced a DLT, dose escalation to the next dose level would occur, c) if two patients in a cohort experienced a DLT, dose escalation would stop and the prior dose would be considered the maximum tolerated dose (MTD). At that point the MTD was to be expanded to a total of six patients.
Baseline evaluations included EKG, PSA for prostate cancer patients, CBC with differential, CMP, LDH, bone scan (BS), or CT, PET/CT or MRI as clinically indicated to monitor response to therapy. Palliative radiation therapy utilized standard of care palliative dose/fractionation regimens. On Week 1, Day 1 patients underwent physical exam (PE), laboratory studies as above and EKG. All patients completed a pain inventory, the Brief Pain Inventory, prior to therapy. […] Weekly, during radiation therapy, patients had vital signs performed, with assessment of adverse events (AEs), labs and EKG if clinically indicated. The pain inventory was completed again on the last day of radiation therapy. Following completion of therapy, the first follow-up visit was within 2-3 months +/−2 weeks, with subsequent follow-up visits optional until progression of disease at the site of radiation. […] They also completed another pain inventory.

[1] = 33 mg cohort, count-attribution

O=[Se](O)O [sodium selenite, Sodium selenite pentahydrate]
Abdominal pain grade 1: Number of Occurrences (33 mg cohort): 3
Abdominal pain grade 1: Number of Subjects Affected (33 mg cohort): 3
Anemia grade 3: Number of Occurrences (33 mg cohort): 1
Anemia grade 3: Number of Subjects Affected (33 mg cohort): 1
Anemia grade 3: Relation to Selenite (33 mg cohort): Unrelated
Back Pain grade 1: Number of Occurrences (33 mg cohort): 1
Back Pain grade 1: Number of Subjects Affected (33 mg cohort): 1
Back Pain grade 1: Relation to Selenite (33 mg cohort): Unrelated
Bone Pain grade 1: Number of Occurrences (33 mg cohort): 1
Bone Pain grade 1: Number of Subjects Affected (33 mg cohort): 1
Bone Pain grade 1: Relation to Selenite (33 mg cohort): Unrelated
Diarrhea grade 1: Number of Occurrences (33 mg cohort): 5
Diarrhea grade 1: Number of Subjects Affected (33 mg cohort): 4
Dizziness grade 1: Number of Occurrences (33 mg cohort): 1
Dizziness grade 1: Number of Subjects Affected (33 mg cohort): 1
Dizziness grade 1: Relation to Selenite (33 mg cohort): Probable
Dysphagia grade 1: Number of Occurrences (33 mg cohort): 1
Dysphagia grade 1: Number of Subjects Affected (33 mg cohort): 1
Dysphagia grade 1: Relation to Selenite (33 mg cohort): Unrelated
Dyspnea grade 1: Number of Occurrences (33 mg cohort): 1
Dyspnea grade 1: Number of Subjects Affected (33 mg cohort): 1
Dyspnea grade 1: Relation to Selenite (33 mg cohort): Unrelated
Dyspnea grade 2: Number of Occurrences (33 mg cohort): 1
Dyspnea grade 2: Number of Subjects Affected (33 mg cohort): 1
Dyspnea grade 2: Relation to Selenite (33 mg cohort): Unrelated
ECG QTcF Prolonged grade 1: Number of Occurrences (33 mg cohort): 2
ECG QTcF Prolonged grade 1: Number of Subjects Affected (33 mg cohort): 2
ECG QTcF Prolonged grade 1: Relation to Selenite (33 mg cohort): Probable
Facial Pain grade 1: Number of Occurrences (33 mg cohort): 1
Facial Pain grade 1: Number of Subjects Affected (33 mg cohort): 1
Facial Pain grade 1: Relation to Selenite (33 mg cohort): Unrelated
Fall (Mechanical) grade 2: Number of Occurrences (33 mg cohort): 2
Fall (Mechanical) grade 2: Number of Subjects Affected (33 mg cohort): 1
Fall (Mechanical) grade 2: Relation to Selenite (33 mg cohort): Unrelated
Fatigue grade 1: Number of Occurrences (33 mg cohort): 2
Fatigue grade 1: Number of Subjects Affected (33 mg cohort): 2
Fatigue grade 1: Relation to Selenite (33 mg cohort): Possible
Fatigue grade 2: Number of Occurrences (33 mg cohort): 2
Fatigue grade 2: Number of Subjects Affected (33 mg cohort): 1
Fatigue grade 2: Relation to Selenite (33 mg cohort): Unrelated,; also recorded: Possible
Flu-like Symptoms grade 1: Number of Occurrences (33 mg cohort): 2
Flu-like Symptoms grade 1: Number of Subjects Affected (33 mg cohort): 1
Flu-like Symptoms grade 1: Relation to Selenite (33 mg cohort): Unrelated
Nausea grade 1: Number of Occurrences (33 mg cohort): 8
Nausea grade 1: Number of Subjects Affected (33 mg cohort): 5
Nausea grade 2: Number of Occurrences (33 mg cohort): 1
Nausea grade 2: Number of Subjects Affected (33 mg cohort): 1
Paresthesia grade 1: Number of Occurrences (33 mg cohort): 1
Paresthesia grade 1: Number of Subjects Affected (33 mg cohort): 1
Paresthesia grade 1: Relation to Selenite (33 mg cohort): Unrelated
Sore Throat grade 1: Number of Occurrences (33 mg cohort): 1
Sore Throat grade 1: Number of Subjects Affected (33 mg cohort): 1
Sore Throat grade 1: Relation to Selenite (33 mg cohort): Unrelated
Upper Respiratory Infection grade 1: Number of Occurrences (33 mg cohort): 1
Upper Respiratory Infection grade 1: Number of Subjects Affected (33 mg cohort): 1
Upper Respiratory Infection grade 1: Relation to Selenite (33 mg cohort): Unrelated
Vomiting grade 1: Number of Occurrences (33 mg cohort): 6
Vomiting grade 1: Number of Subjects Affected (33 mg cohort): 2
Vomiting grade 2: Number of Occurrences (33 mg cohort): 1
Vomiting grade 2: Number of Subjects Affected (33 mg cohort): 1
Vomiting grade 2: Relation to Selenite (33 mg cohort): Probable
Abdominal pain grade 1: Relation to Selenite [1]: 1-Possible, and 2-Probably
Diarrhea grade 1: Relation to Selenite [1]: 2-Possible, and 3-Probable
Vomiting grade 1: Relation to Selenite [1]: 4-Probable, and 2-Unlikely
Nausea grade 1: Relation to Selenite (33 mg cohort, printed 7-Probable, 1-Unrelated over four lines): Probable,; also recorded: Unrelated
Nausea grade 2: Relation to Selenite (33 mg cohort, printed Probable/Definite over two lines): Probable/; also recorded: Definite
primary toxicities (33 mg dose level): grade 1 GI side effects
QT prolongation (33 mg dose level, ECG review): grade 1 QT prolongation in 2 patients; also recorded: two patients had grade 1 ECG QTcF prolongations; also recorded: within the range of expected intra-subject variability
primary toxicities (33 mg dose level, listed as selenite): grade 1 GI side effects; also recorded: grade 1 GI toxicities
Back Pain grade 2: Number of Occurrences (49.5 mg cohort): 1
Back Pain grade 2: Number of Subjects Affected (49.5 mg cohort): 1
Back Pain grade 2: Relation to Selenite (49.5 mg cohort): Unrelated
Diarrhea grade 2: Number of Occurrences (49.5 mg cohort): 1
Diarrhea grade 2: Number of Subjects Affected (49.5 mg cohort): 1
Diarrhea grade 2: Relation to Selenite (49.5 mg cohort): Possible
Fatigue grade 1: Number of Occurrences (49.5 mg cohort): 1
Fatigue grade 1: Number of Subjects Affected (49.5 mg cohort): 1
Fatigue grade 1: Relation to Selenite (49.5 mg cohort): Possible
Nausea grade 1: Number of Occurrences (49.5 mg cohort): 1
Nausea grade 1: Number of Subjects Affected (49.5 mg cohort): 1
Nausea grade 1: Relation to Selenite (49.5 mg cohort): Probable
Nausea grade 2: Number of Occurrences (49.5 mg cohort): 1
Nausea grade 2: Number of Subjects Affected (49.5 mg cohort): 1
Nausea grade 2: Relation to Selenite (49.5 mg cohort): Probable
Pain in Extremity grade 2: Number of Occurrences (49.5 mg cohort): 1
Pain in Extremity grade 2: Number of Subjects Affected (49.5 mg cohort): 1
Pain in Extremity grade 2: Relation to Selenite (49.5 mg cohort): Unrelated
Vomiting grade 1: Number of Occurrences (49.5 mg cohort): 1
Vomiting grade 1: Number of Subjects Affected (49.5 mg cohort): 1
Vomiting grade 1: Relation to Selenite (49.5 mg cohort): Probable
Vomiting grade 2: Number of Occurrences (49.5 mg cohort): 1
Vomiting grade 2: Number of Subjects Affected (49.5 mg cohort): 1
Vomiting grade 2: Relation to Selenite (49.5 mg cohort): Probable
toxicity in the one patient at 49.5 mg (49.5 mg dose level, 1 patient): grade 2 nausea/vomiting and diarrhea; also recorded: grade 2 GI toxicity; also recorded: grade 2 diarrhea, nausea and vomiting
toxicity / adverse events attributable to selenite (5.5, 11 and 16.5 mg dose levels, oral 2 h before RT): no toxicity attributable to selenite; also recorded: no adverse events attributable to selenite; also recorded: no AEs attributable to the selenite
toxicities at all other dose levels (33 and 49.5 mg dose levels): grade 1 and 2 GI toxicities
maximum tolerated dose (MTD) (doses 5.5 to 49.5 mg po/day with RT): not reached
highest acceptable / reasonably well tolerated dose (oral once daily with RT, ondansetron prn): 33 mg
